Experimental data from US10065942B2, “Crystalline (2S)-3-[(3S,4S)-3-[(1R)-1-hydroxyethyl]-4-(4-methoxy-3-{[1-(5-methylpyridin-2-yl)azetidin-3-yl]oxy}phenyl)-3-methylpyrrolidin-1-yl]-3-oxopropane-1,2-diol” (Eli Lilly and Company, priority 2014, dated 2018).

Test system: chronic cyclophosphamide (CYP)-induced overactive bladder mouse model
Experiment: Overactive Bladder In Vivo Model (chronic cyclophosphamide-induced OAB)
Details: for Mean Voiding Frequency (no./4 hr) / Mean Volume/Void: oral daily, day 8, female C57/Bl6 mice
Method: The in vivo effect of PDE4 inhibitors on OAB is studied with a chronic cyclophosphamide (CYP)-induced overactive bladder mouse model adapted from Boudes et al., Neurourol. Urodynam. 2011. In a typical study, female C57/Bl6 mice, approximately 20 grams in body weight (Harlan Laboratories, Inc., Indianapolis, Ind.) are used. Mice are randomized by body weight into groups one day before the start of the study. Mice are individually housed and maintained on a 12 hour light/dark cycle at 22° C. with ad lib access to food (TD 2014 with 0.72% Ca and 0.61% P, 990 IU/g D3, Teklad™, Madison, Wis.) and water. Animals receive cyclophosphamide (dissolved in physiological saline) i.p. administration at 100 mg/kg on days 1, 3, 5, and 7 to chronically induce OAB. The vehicle control group received daily vehicle (HEC 1%/Tween 80 0.25%/Antifoam 0.05%) administered orally. All other groups are administered orally tadalafil at 10 mg/kg in combination with 0.1, 1.0, or 10.0 mg/kg of test compound daily at a volume of 200 μl/mouse. On day 8, mice are housed in urine collection chambers with a filter paper placed underneath chamber. Prior to urine collection, gavages of 1 ml water are given to each mouse. Urine is collected from 6 pm to 10 pm (i.e. for 4 hrs). Gel cups (DietGel™ 76A) are supplied as water source during the 4 hour period. The filter paper is changed every hour. Voiding frequency and volume/void are calculated using Image J software (NIH). Data are statistically analyzed with JMP8® software (Cary, N. C.).
All treatment groups receive a fixed dose of 10 mg/kg of tadalafil.

[1] = Example 2 0.1 mg/kg + tadalafil 10 mg/kg
[2] = Example 2 1.0 mg/kg + tadalafil 10 mg/kg
[3] = Example 2 10.0 mg/kg + tadalafil 10 mg/kg
[4] = given with tadalafil 10 mg/kg, 0.1, 1.0, 10.0 mg/kg oral daily

COc1ccc([C@@H]2CN(C(=O)[C@@H](O)CO)C[C@@]2(C)[C@@H](C)O)cc1OC1CN(c2ccc(C)cn2)C1 [Example 2, (2S)-3-[(3S,4S)-3-[(1R)-1-hydroxyethyl]-4-(4-methoxy-3-{[1-(5-methylpyridin-2-yl)azetidin-3-yl]oxy}phenyl)-3-methylpyrrolidin-1-yl]-3-oxopropane-1,2-diol]
Mean Voiding Frequency (no./4 hr) [1]: 10 no./4 hr
Mean Volume/Void [1]: 47.3 µL
Mean Voiding Frequency (no./4 hr) [2]: 8.61 no./4 hr
Mean Volume/Void [2]: 77.2 µL
Mean Voiding Frequency (no./4 hr) [3]: 8.38 no./4 hr
Mean Volume/Void [3]: 81.9 µL
effect on urinary frequency (in words) [4]: significantly reduces urinary frequency in a dose-dependent fashion
effect on volume/void (in words) [4]: increases of volume/void are also observed in a dose-dependent fashion
